Laboratory results reported in the supplement of paper PMC5844555.

How the values were obtained:
Assay in all cases: 3' UTR reporter interaction score (median-centred robust z-score of log2 firefly/Renilla activity); higher = less repression of the 3' UTR reporter
Conditions in all cases: HEK293T; 48 h
BRCA2 = test system: BRCA2
Procedure, shortened: (§1)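 HEK293T cells (10,000/well, 96-well plates) were co-transfected using DharmaFECT Duo with 100 ng firefly luc2P reporter carrying the gene's 3' UTR, 20 ng Renilla pRL-TK control and 2.5 pmol miRNA mimic. Dual-luciferase activities were read 48 h post-transfection. The interaction score is the log-transformed firefly/Renilla ratio as a per-plate robust z-score (median, median absolute deviation), median-centred per miRNA and averaged over at least two independent screens; more negative indicates interaction.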

NOTCH1 = test system: NOTCH1
Procedure, shortened: as §1

MYB = test system: MYB
Procedure, shortened: as §1

MYCN = test system: MYCN
Procedure, shortened: as §1

PHOX2B = test system: PHOX2B
Procedure, shortened: as §1

FBXW7 = test system: FBXW7
Procedure, shortened: as §1

EZH2 = test system: EZH2
Procedure, shortened: as §1

MYC = test system: MYC
Procedure, shortened: as §1

ZEB2 = test system: ZEB2
Procedure, shortened: as §1

HRAS = test system: HRAS
Procedure, shortened: as §1

PHF6 = test system: PHF6
Procedure, shortened: as §1

RB1 = test system: RB1
Procedure, shortened: as §1

MYT1L = test system: MYT1L
Procedure, shortened: as §1

TP53 = test system: TP53
Procedure, shortened: as §1

Sequence | 3' UTR reporter interaction score (BRCA2) | 3' UTR reporter interaction score (NOTCH1) | 3' UTR reporter interaction score (MYB) | 3' UTR reporter interaction score (MYCN) | 3' UTR reporter interaction score (PHOX2B) | 3' UTR reporter interaction score (FBXW7) | 3' UTR reporter interaction score (EZH2) | 3' UTR reporter interaction score (MYC) | 3' UTR reporter interaction score (ZEB2) | 3' UTR reporter interaction score (HRAS) | 3' UTR reporter interaction score (PHF6) | 3' UTR reporter interaction score (RB1) | 3' UTR reporter interaction score (MYT1L) | 3' UTR reporter interaction score (TP53)
UCGGGGAUCAUCAUGUCACGAG | 0.268 | -0.696 | -0.226 | -0.0751 | 0.234 | 0.568 | -0.077 | -1.16 | 1.06 | -0.912 | 1.52 | 1.06 | -0.88 | -0.0214
UCGUACCGUGAGUAAUAAUGC | 0.63 | -1.54 | -2.72 | 0.512 | -1.05 | -0.162 | 0.753 | -0.268 | 0.34 | -0.495 | 1.63 | -1.12 | -0.417 | 0.516
UCGUGCAUCCCUUUAGAGUGUU | 0.369 | -0.139 | -1.1 | 1.34 | -0.719 | 0.538 | 0.153 | -0.38 | -1.93 | -0.817 | 2.24 | 1.71 | -0.28 | -0.886
UCGUGUCUUGUGUUGCAGCCG | -0.341 | -0.0902 | 0.669 | 0.852 | -0.401 | -0.364 | 0.0252 | -0.116 | 0.403 | -0.272 | -0.112 | -0.468 | -0.0239 | -0.142
UCUACAAAGGGAAGCCCUUUCUG | 0.423 | -0.427 | 0.56 | 0.12 | -0.778 | -0.547 | 0.229 | -0.127 | -0.71 | -0.0822 | 0.0225 | 0.712 | 0.66 | -0.365
UCUACAGUGCACGUGUCU | -0.808 | -0.268 | 0.507 | 0.872 | 1.13 | -0.208 | -0.132 | -0.224 | 0 | -0.193 | -1.18 | 0.634 | 0.894 | 0.119
UCUAGGCUGGUACUGCUGA | -0.172 | -0.326 | 0.874 | 0.628 | -0.185 | 0.217 | -0.385 | -0.9 | 0.447 | -0.226 | -0.473 | -0.812 | 0.751 | 0.681
UCUAGUAAGAGUGGCAGUCG | 0.0816 | 0.0614 | 0.506 | -0.229 | 1.81 | 1.23 | -0.108 | -0.209 | 0.627 | -0.21 | 0.233 | -1.19 | -0.214 | 0.771
UCUCCCAACCCUUGUACCAGUG | 0.0345 | -0.369 | -6.53 | 0.5 | -0.32 | -1.26 | 0.195 | 0.62 | 0.808 | 0.137 | 0.168 | -0.714 | 0.779 | -0.706
